For three compounds, solubility and EC50 results are on record in patent publication US8722849B2, “Polypeptides” (Novo Nordisk A/S, priority 2011, dated 2014).

Values after ≈ are worked out from the molar mass of the structure shown. Where two headings read alike, the source gives them in different places. Starred links: 1 amine or outer side, 2 acyl side, 3 side chain; linkers in the order of their positions; H or OH if unused. Positions of bridges follow the written chain, without caps; N, C: chain ends. Residues, ends and D or L forms follow the SMILES beside them. *: point of attachment. C20 diacid = O=C(O)CCCCCCCCCCCCCCCCCCC(=O)*; γGlu = O=C(O)[C@H](CCC(=O)[*:2])N[*:1]; AEEA = NCCOCCOCC(=O)O

The nature of data set [1]: Assay (IV) determination of solubility. In kind it is physicochemical. In short, it runs like this:
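Solubility is measured across pH 3.0–8.0 by mixing a ~500 nmol/ml aqueous polypeptide stock 1:1 with 100 mM glycylglycine or bistrispropane buffers. Samples stand 18 hours at room temperature, then are centrifuged and the soluble concentration is determined by HPLC.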

Data set [2] addresses T1, human amylin receptor (amylin 3(a) receptor: human calcitonin receptor + RAMP-3) (Homo sapiens, UniProt O60896+P30988).
T1 construct: expressed in transfected cells; host or cells: BHK570
T1 sequence (P30988 25-474): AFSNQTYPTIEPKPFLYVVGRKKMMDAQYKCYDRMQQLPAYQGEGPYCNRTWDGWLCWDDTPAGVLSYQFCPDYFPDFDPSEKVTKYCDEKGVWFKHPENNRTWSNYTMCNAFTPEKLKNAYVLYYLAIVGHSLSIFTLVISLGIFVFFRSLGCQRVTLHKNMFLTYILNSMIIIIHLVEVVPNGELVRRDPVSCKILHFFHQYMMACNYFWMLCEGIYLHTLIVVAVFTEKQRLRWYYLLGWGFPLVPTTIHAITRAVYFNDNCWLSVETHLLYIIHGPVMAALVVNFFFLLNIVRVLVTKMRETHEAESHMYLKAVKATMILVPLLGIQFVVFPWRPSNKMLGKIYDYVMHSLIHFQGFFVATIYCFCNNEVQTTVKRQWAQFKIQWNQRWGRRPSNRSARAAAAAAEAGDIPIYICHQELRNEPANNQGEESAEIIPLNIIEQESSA
T1 sequence (O60896 24-148 partner): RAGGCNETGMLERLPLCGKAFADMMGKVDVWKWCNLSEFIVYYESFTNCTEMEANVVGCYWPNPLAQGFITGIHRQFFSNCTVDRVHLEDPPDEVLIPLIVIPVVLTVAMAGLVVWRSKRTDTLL
The data set can be described thus: Assay (II)a functional CRE-luciferase assay, human amylin receptor. In kind it is cell-based.

The target of data set [3] is T2, human calcitonin receptor (Homo sapiens, UniProt P30988).
T2 construct: expressed in transfected cells; host or cells: BHK570
T2 sequence (P30988 25-474): T1 sequence (P30988 25-474)
As to the kind of experiment: Assay (II)a functional CRE-luciferase assay, human calcitonin receptor. In kind it is cell-based.

Setting [4] is: bistrispropane buffer, pH 6, pH 6.0, read-out: Solubility pH 6.0.
The mark [5] stands for this setting: bistrispropane buffer, pH 6.5, pH 6.5, read-out: Solubility pH 6.5.
[6] abbreviates: bistrispropane buffer, pH 7, pH 7.0, 18 hours at room temperature, Table 3, read-out: Solubility pH 7.0.
Setting [7] is: bistrispropane buffer, pH 7, pH 7.0, read-out: Solubility pH 7.0.
The mark [8] stands for this setting: bistrispropane buffer, pH 7.5, pH 7.5, read-out: Solubility pH 7.5.
Setting [9] is: bistrispropane buffer, pH 8, pH 8.0, read-out: Solubility pH 8.0.
The mark [10] stands for this setting: glycylglycine buffer, pH 3, pH 3.0, read-out: Solubility pH 3.0.
Where [11] appears, read: glycylglycine buffer, pH 4, pH 4.0, 18 hours at room temperature, Table 2, read-out: Solubility pH 4.0.
[12] abbreviates: glycylglycine buffer, pH 4, pH 4.0, read-out: Solubility pH 4.0.
[13] abbreviates: glycylglycine buffer, pH 5, pH 5.0, read-out: Solubility pH 5.0.
Setting [14] is: Table 2, BHK amylin 3(a)-receptor/CRE-luc cells.
The mark [15] stands for this setting: Table 7, human calcitonin (CTa) receptor.

Usually solubility stands for the concentration that dissolves in the medium under given conditions. The EC50 is the concentration giving half of the maximal effect. Take `CC[C@H](C)[C@H](NC(=O)[C@@H]1CCCN1C(=O)CNC(=O)[C@H](Cc1ccccc1)NC(=O)[C@H](CC(N)=O)NC(=O)[C@H](CC(N)=O)NC(=O)[C@H](CO)NC(=O)[C@H](CO)NC(=O)[C@H](Cc1cnc[nH]1)NC(=O)[C@H](Cc1cnc[nH]1)NC(=O)[C@H](CC(C)C)NC(=O)[C@H](Cc1ccccc1)NC(=O)[C@H](CCC(=O)O)NC(=O)[C@H](C)NC(=O)[C@H](CC(C)C)NC(=O)[C@H](CCCNC(=N)N)NC(=O)[C@H](CCC(N)=O)NC(=O)[C@@H](NC(=O)[C@H](C)NC(=O)[C@@H]1CSSC[C@H](NC(=O)[C@H](CCC(=O)O)NC(=O)CC[C@H](NC(=O)CCCCCCCCCCCCCCCCCCC(=O)O)C(=O)O)C(=O)N[C@@H](CC(N)=O)C(=O)N[C@@H]([C@@H](C)O)C(=O)N[C@@H](C)C(=O)N[C@@H]([C@@H](C)O)C(=O)N1)[C@@H](C)O)C(=O)N[C@@H](CC(C)C)C(=O)N1CCC[C@H]1C(=O)N1CCC[C@H]1C(=O)N[C@H](C(=O)N[C@@H](CC(N)=O)C(=O)N[C@H](C(=O)NCC(=O)N[C@@H](CO)C(=O)N[C@@H](CC(N)=O)C(=O)N[C@H](C(=O)N[C@@H](Cc1ccc(O)cc1)C(N)=O)[C@@H](C)O)C(C)C)[C@@H](C)O` [Example 29, N-alpha-[(S)-4-Carboxy-4-(19-carboxynonadecanoylamino)butyryl]-[Glu1,Glu14,His17]-pramlintide] ({C20 diacid-γGlu}-ECNTATCATQRLAEFLHHSSNNFGPILPPTNVGSNTY-NH2; disulfide 2-7): the solubility at 18 h in data set [1] (setting [4]), in data set [1] (setting [5]), in data set [1] (setting [6]), in data set [1] (setting [7]), in data set [1] (setting [8]) and in data set [1] (setting [9]) was above 200 µM in each case. In addition, the solubility at 18 h is above 200 µM in data set [1] (setting [10]), above 200 µM in data set [1] (setting [11]), above 200 µM in data set [1] (setting [12]) and 107 µM (≈ 477 µg/mL) in data set [1] (setting [13]). The EC50 in data set [2] (setting [14]) was found to be 377 pM; in data set [3] (setting [15]), 657 pM.

As for `CC[C@H](C)[C@H](NC(=O)[C@@H]1CCCN1C(=O)CNC(=O)[C@H](Cc1ccccc1)NC(=O)[C@H](CC(N)=O)NC(=O)[C@H](CC(N)=O)NC(=O)[C@H](CO)NC(=O)[C@H](CO)NC(=O)[C@H](Cc1c[nH]cn1)NC(=O)[C@H](Cc1c[nH]cn1)NC(=O)[C@H](CC(C)C)NC(=O)[C@H](Cc1ccccc1)NC(=O)[C@H](CCC(=O)O)NC(=O)[C@H](C)NC(=O)[C@H](CC(C)C)NC(=O)[C@H](CCCNC(=N)N)NC(=O)[C@H](CCC(N)=O)NC(=O)[C@@H](NC(=O)[C@H](C)NC(=O)[C@@H]1CSSC[C@H](NC(=O)COCCOCCNC(=O)COCCOCCNC(=O)CC[C@H](NC(=O)CCCCCCCCCCCCCCCCCCC(=O)O)C(=O)O)C(=O)N[C@@H](CC(N)=O)C(=O)N[C@@H]([C@@H](C)O)C(=O)N[C@@H](C)C(=O)N[C@@H]([C@@H](C)O)C(=O)N1)[C@@H](C)O)C(=O)N[C@@H](CC(C)C)C(=O)N1CCC[C@H]1C(=O)N1CCC[C@H]1C(=O)N[C@H](C(=O)N[C@@H](CC(N)=O)C(=O)N[C@H](C(=O)NCC(=O)N[C@@H](CO)C(=O)N[C@@H](CC(N)=O)C(=O)N[C@H](C(=O)N[C@@H](Cc1ccc(O)cc1)C(N)=O)[C@@H](C)O)C(C)C)[C@@H](C)O` [Example 43, N-alpha-[2-(2-{2-[2-(2-{2-[(S)-4-Carboxy-4-(19-carboxyheptadecanoylamino)butyrylamino]ethoxy}ethoxy)acetylamino]ethoxy}ethoxy)acetyl]-[des1,Glu14,His17]-pramlintide] ({C20 diacid-γGlu-AEEA-AEEA}-CNTATCATQRLAEFLHHSSNNFGPILPPTNVGSNTY-NH2; disulfide 1-6), the solubility in data set [1] (pH 3, pH 3.0, read-out: Solubility pH 3.0) is above 200 µM; in data set [1] (pH 4, pH 4.0, 18 hours at room temperature, Table 2, read-out: Solubility pH 4.0), above 200 µM; in data set [1] (pH 4, pH 4.0, read-out: Solubility pH 4.0), above 200 µM; in data set [1] (pH 5, pH 5.0, read-out: Solubility pH 5.0), 194 µM (≈ 896 µg/mL); in data set [1] (pH 6, pH 6.0, read-out: Solubility pH 6.0), 176 µM (≈ 813 µg/mL); in data set [1] (pH 6.5, pH 6.5, read-out: Solubility pH 6.5), 195 µM (≈ 901 µg/mL). The solubility in data set [1] (pH 7, pH 7.0, 18 hours at room temperature, Table 3, read-out: Solubility pH 7.0) is above 200 µM; in data set [1] (pH 7, pH 7.0, read-out: Solubility pH 7.0), above 200 µM; in data set [1] (pH 7.5, pH 7.5, read-out: Solubility pH 7.5) it was above 200 µM; in data set [1] (pH 8, pH 8.0, read-out: Solubility pH 8.0), above 200 µM. The EC50 in data set [2] (setting [14]) stood at 334 pM; in data set [2] (Table 3, BHK amylin 3(a)-receptor/CRE-luc cells), 334 pM; in data set [2] (Table 4), 334 pM; in data set [2] (Table 6, human amylin receptor) it was 334 pM; in data set [2] (Table 7, human amylin receptor), 334 pM; in data set [2] (Table 11) it was 334 pM. The EC50 stood at 672 pM in data set [3] (setting [15]) and 672 pM in data set [3] (Table 11, read-out: CTa receptor human EC50).

With `CC[C@H](C)[C@H](NC(=O)[C@@H]1CCCN1C(=O)CNC(=O)[C@H](Cc1ccccc1)NC(=O)[C@H](CC(N)=O)NC(=O)[C@H](CC(N)=O)NC(=O)[C@H](CO)NC(=O)[C@H](CO)NC(=O)[C@H](Cc1c[nH]cn1)NC(=O)[C@H](CCCNC(=N)N)NC(=O)[C@H](CC(C)C)NC(=O)[C@H](Cc1ccccc1)NC(=O)[C@H](CCC(=O)O)NC(=O)[C@H](C)NC(=O)[C@H](CC(C)C)NC(=O)[C@H](CCCNC(=N)N)NC(=O)[C@H](CCC(N)=O)NC(=O)[C@@H](NC(=O)[C@H](C)NC(=O)[C@@H]1CSSC[C@H](NC(=O)[C@H](CCCNC(=N)N)NC(=O)[C@H](CCC(=O)O)NC(=O)[C@H](CCC(=O)O)NC(=O)CC[C@H](NC(=O)CCCCCCCCCCCCCCCCCCC(=O)O)C(=O)O)C(=O)N[C@@H](CC(N)=O)C(=O)N[C@@H]([C@@H](C)O)C(=O)N[C@@H](C)C(=O)N[C@@H]([C@@H](C)O)C(=O)N1)[C@@H](C)O)C(=O)N[C@@H](CC(C)C)C(=O)N1CCC[C@H]1C(=O)N1CCC[C@H]1C(=O)N[C@H](C(=O)N[C@@H](CC(N)=O)C(=O)N[C@H](C(=O)NCC(=O)N[C@@H](CO)C(=O)N[C@@H](CC(N)=O)C(=O)N[C@H](C(=O)N1CCC[C@H]1C(N)=O)[C@@H](C)O)C(C)C)[C@@H](C)O` [Example 155, N-alpha-[(S)-4-Carboxy-4-(19-carboxynonadecanoylamino)butyryl]-Glu-Glu-[Arg1,Glu14,Arg17,Pro37]-pramlintide] ({C20 diacid-γGlu}-EERCNTATCATQRLAEFLRHSSNNFGPILPPTNVGSNTP-NH2; disulfide 4-9 (inferred); C-terminus assumed), the solubility at 18 h in data set [1] (setting [4]), in data set [1] (setting [5]), in data set [1] (setting [6]), in data set [1] (setting [7]), in data set [1] (setting [8]) and in data set [1] (setting [9]) was above 200 µM in each case. Moreover, the solubility at 18 h in data set [1] (setting [10]), in data set [1] (setting [11]), in data set [1] (setting [12]) and in data set [1] (setting [13]) was above 200 µM in each case. Further, the EC50 in data set [2] (setting [14]) came out at 313 pM; in data set [3] (setting [15]), 526 pM.
